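In this assay, cells in 96-well plates receive the compound at five concentrations for 48 hours. Endpoints are linearly interpolated between the surrounding concentrations. GI50 is the concentration that inhibits growth by half.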 Activity calls are given as the source filed them. No stated cut-off is given here; in the data, active = GI50 up to about 1.1 µM and inactive = higher. Where only a bound is given, the exact number is not on record here.

Results on 14 compounds are retold here after ChEMBL document CHEMBL1201862, “PubChem BioAssay data set” (2004).

Some test systems named below: HCC 2998; CCRF-CEM; SK-MEL-2; NCI-H460; SK-OV-3; SF-539; NCI-H522; SF-295; OVCAR-5; MOLT-4; OVCAR-3; SW-620; SN12C; TK-10; RXF 393; NCI-H226.
Common to all, as to test: inhibition of tumour cell growth, NCI panel, 48 h

For `COc1ccc(Cc2nccc3cc(OC)c(OC)cc23)cc1`, the GI50 in the experiment with HCC 2998 is > 100 µM (inactive); in the experiment with CCRF-CEM it was 65.6 µM (inactive); in the experiment on SK-MEL-2, > 100 µM (inactive); with NCI-H460 it was 90.6 µM (inactive); in the experiment on SK-OV-3, > 100 µM (inactive); with SF-539, > 100 µM (inactive). Also, the GI50 in the experiment on NCI-H522 was 37.8 µM (inactive); in the experiment on SF-295 it was 32.4 µM (inactive); in the experiment with OVCAR-5, 40.4 µM (inactive); in the experiment on MOLT-4 it was 39.4 µM (inactive); in the experiment on OVCAR-3 it was 50.4 µM (inactive); with SW-620, > 100 µM (inactive). Moreover, the GI50 in the experiment with SN12C was 36.9 µM (inactive); in the experiment with TK-10 it was > 100 µM (inactive).

Take `CC12CCCCC1C(=O)C2(Cl)Cl` (configuration not stated): the GI50 with HCC 2998 was 1.79 µM (inactive); in the experiment with RXF 393, 3.72 µM (inactive); in the experiment on CCRF-CEM, 1.42 µM (inactive); in the experiment with SK-MEL-2, 1.95 µM (inactive); in the experiment with NCI-H460, 2.28 µM (inactive); with SF-539 it was 2.17 µM (inactive). The GI50 in the experiment with NCI-H522 is 1.89 µM (inactive); with SF-295, 1.66 µM (inactive); in the experiment on OVCAR-5, 2.56 µM (inactive); in the experiment on MOLT-4, 1.84 µM (inactive); in the experiment with OVCAR-3 it was 1.77 µM (inactive); with SW-620 it was 2.05 µM (inactive). For the same compound, the figures for the GI50 in the experiment on SN12C and with TK-10 were 2.98 µM (inactive) and 3.85 µM (inactive), respectively.

Turning to `O=C(O)C12C=CC(C1)c1ccccc12` (configuration not stated), the GI50 with HCC 2998, with CCRF-CEM, in the experiment on NCI-H460, in the experiment on SK-OV-3, with NCI-H226 and with SF-295 was > 100 µM (inactive) each time. Also, the GI50 in the experiment on OVCAR-5, in the experiment on MOLT-4, with OVCAR-3, in the experiment on SW-620, with SN12C and in the experiment on TK-10 was > 100 µM (inactive) throughout.

For the compound `CCCCN(CCCC)CC(C(=O)Nc1ccccc1)/C(C)=N\NC(=O)c1ccncc1` (configuration not stated), the GI50 in the experiment on HCC 2998 is > 100 µM (inactive); in the experiment on RXF 393, > 100 µM (inactive); with NCI-H460, 46 µM (inactive); with SK-OV-3, > 100 µM (inactive); in the experiment on NCI-H226, > 100 µM (inactive); in the experiment with SF-539, > 100 µM (inactive). In addition, the GI50 is > 100 µM (inactive) in the experiment on NCI-H522; > 100 µM (inactive) in the experiment with SF-295; > 100 µM (inactive) in the experiment on OVCAR-5; > 100 µM (inactive) with MOLT-4; 64.7 µM (inactive) in the experiment on OVCAR-3; > 100 µM (inactive) in the experiment on SW-620. Besides, the GI50 with SN12C and in the experiment on TK-10 was > 100 µM (inactive) throughout.

Turning to `COc1ccccc1C(N)c1ccccc1` (configuration not stated), the GI50 in the experiment on HCC 2998, with RXF 393, in the experiment with CCRF-CEM, in the experiment on NCI-H460, in the experiment with SK-OV-3 and in the experiment with NCI-H226 was > 100 µM (inactive) in each case. For the same compound, the GI50 with SF-539, with NCI-H522, in the experiment with SF-295, in the experiment on OVCAR-5, in the experiment with MOLT-4 and in the experiment with OVCAR-3 was > 100 µM (inactive) throughout. Further, the GI50 in the experiment on SW-620, in the experiment on SN12C and in the experiment with TK-10 was > 100 µM (inactive) in each case.

`COc1ccc(C2S/C(=C\c3cc(OC)c(OC)c(OC)c3)C(=O)N2NC(=O)Cc2ccccc2)cc1` (configuration not stated): the GI50 with RXF 393, in the experiment on CCRF-CEM, in the experiment with SK-MEL-2, in the experiment with NCI-H460, in the experiment with SK-OV-3 and with NCI-H226 was > 100 µM (inactive) in each case. In addition, the GI50 in the experiment with SF-539 is > 100 µM (inactive); with NCI-H522, > 100 µM (inactive); in the experiment on SF-295, > 100 µM (inactive); in the experiment with OVCAR-5, > 100 µM (inactive); with MOLT-4, 44.3 µM (inactive); with SW-620, > 100 µM (inactive). In addition, the GI50 in the experiment with SN12C and with TK-10 was > 100 µM (inactive) throughout.

In the case of `CC(C)(C)C(=O)Cc1cc2c(cc1C(=O)O)S(=O)(=O)NC(C(C)(C)C)=C2`, the GI50 in the experiment with CCRF-CEM, with SK-MEL-2, in the experiment with NCI-H460, in the experiment on SK-OV-3, in the experiment on NCI-H226 and with NCI-H522 was > 100 µM (inactive) each time. Also, the GI50 in the experiment on SF-295, in the experiment with OVCAR-5, in the experiment with MOLT-4, with OVCAR-3, with SW-620 and in the experiment on SN12C was > 100 µM (inactive) throughout. In the experiment on TK-10, the GI50 is > 100 µM (inactive).

`Cn1ncc2cc3c(Nc4ccc(Cl)cc4)cccc3nc21`: the GI50 with HCC 2998 is 21 µM (inactive); with RXF 393, 6.87 µM (inactive); in the experiment with CCRF-CEM, 15.1 µM (inactive); with SK-MEL-2, 22.6 µM (inactive); in the experiment with NCI-H460, 8.61 µM (inactive); in the experiment with SK-OV-3 it was 61.2 µM (inactive). For the same compound, the GI50 was 1.75 µM (inactive) in the experiment on NCI-H522; 14.2 µM (inactive) with SF-295; > 10 µM (inactive) with OVCAR-5; 6.82 µM (inactive) in the experiment with MOLT-4; 12.7 µM (inactive) in the experiment with OVCAR-3; 13.9 µM (inactive) with SW-620. In addition, the GI50 in the experiment on SN12C was 18.1 µM (inactive); with TK-10, 26.9 µM (inactive).

For the compound `CC(Oc1cc2oc(=O)cc(-c3ccccc3)c2cc1Cl)C(=O)O` (configuration not stated), the GI50 in the experiment on HCC 2998, with RXF 393, with CCRF-CEM, in the experiment on NCI-H460, in the experiment on SK-OV-3 and with NCI-H226 was > 100 µM (inactive) in each case. The GI50 in the experiment on SF-539, in the experiment with NCI-H522, with SF-295, in the experiment with MOLT-4, in the experiment with OVCAR-3 and in the experiment with SW-620 was > 100 µM (inactive) in each case. Also, the GI50 in the experiment on SN12C and in the experiment with TK-10 was > 100 µM (inactive) throughout.

With `Cc1ccc(NC(=O)CCC(=O)C2CC(=O)CC/C2=N\NC(=O)c2cc3ccccc3cc2O)cc1C` (configuration not stated), the GI50 with HCC 2998 was 18.7 µM (inactive); with CCRF-CEM it was 11.5 µM (inactive); in the experiment on SK-MEL-2, 26.4 µM (inactive); in the experiment on NCI-H460, 25.2 µM (inactive); with SK-OV-3, 67.9 µM (inactive); in the experiment with NCI-H226, 23 µM (inactive). In addition, the GI50 in the experiment on SF-539 is 30.1 µM (inactive); with NCI-H522, 16.6 µM (inactive); in the experiment with SF-295 it was 32.1 µM (inactive); in the experiment on OVCAR-5, 22 µM (inactive); in the experiment with MOLT-4, 17.7 µM (inactive); in the experiment on OVCAR-3, 14.8 µM (inactive). Also, the GI50 with SW-620 is 25.6 µM (inactive); with SN12C it was 48.9 µM (inactive); in the experiment on TK-10, 51.9 µM (inactive).

Regarding `NC(=O)c1csc(C2OC(COP(=O)(O)CP(=O)(O)OCC3OC(n4cnc5c(N)ncnc54)C(O)C3O)C(O)C2O)n1` (configuration not stated), the GI50 in the experiment on HCC 2998, with CCRF-CEM, in the experiment with SK-MEL-2, in the experiment on NCI-H460, in the experiment with SK-OV-3 and in the experiment on NCI-H226 was > 100 µM (inactive) in each case. For the same compound, the GI50 with SF-539 was > 100 µM (inactive); with NCI-H522, 68.1 µM (inactive); with SF-295, 53.7 µM (inactive); in the experiment on OVCAR-5, > 100 µM (inactive); in the experiment on MOLT-4, > 100 µM (inactive); in the experiment with OVCAR-3, > 100 µM (inactive). Besides, the GI50 in the experiment on SW-620, in the experiment with SN12C and with TK-10 was > 100 µM (inactive) throughout.

For the compound `CCCCCCCCCCCCCCCC[N+](C)(C)Cc1ccc(C[N+](C)(C)CCCCCCCCCCCCCCCC)cc1`, the GI50 is 3.72 µM (inactive) with HCC 2998; 0.923 µM (active) in the experiment with RXF 393; 1.46 µM (inactive) with CCRF-CEM; 2.04 µM (inactive) in the experiment with SK-MEL-2; 2.51 µM (inactive) in the experiment on NCI-H460; 2.62 µM (inactive) in the experiment on SK-OV-3. For the same compound, the GI50 with SF-539 was 2.02 µM (inactive); in the experiment with NCI-H522, 2.58 µM (inactive); in the experiment with SF-295, 1.74 µM (inactive); in the experiment on OVCAR-5 it was 1.91 µM (inactive); in the experiment with MOLT-4, 1.78 µM (inactive); with OVCAR-3, 2.54 µM (inactive). Besides, the GI50 was 2.99 µM (inactive) in the experiment on SW-620, 1.95 µM (inactive) in the experiment on SN12C and 17.8 µM (inactive) in the experiment on TK-10.

With `COC1CC(OC)C2OC(c3ccccc3)OCC2O1` (configuration not stated), the GI50 with HCC 2998, with RXF 393, with CCRF-CEM, with SK-MEL-2, with NCI-H460 and with SK-OV-3 was > 100 µM (inactive) each time. The GI50 with SF-539, in the experiment on NCI-H522, in the experiment with SF-295, with OVCAR-5, in the experiment on MOLT-4 and with OVCAR-3 was > 100 µM (inactive) in each case. Further, the GI50 with SW-620, in the experiment on SN12C and in the experiment on TK-10 was > 100 µM (inactive) in each case.

Take `Cc1cccc2c(O)cc(=O)oc12`: the GI50 in the experiment with RXF 393, with CCRF-CEM, with NCI-H460, in the experiment with SK-OV-3, with NCI-H226 and with SF-539 was > 100 µM (inactive) throughout. Further, the GI50 in the experiment with SF-295, in the experiment with OVCAR-5, with MOLT-4, with OVCAR-3, in the experiment with SW-620 and in the experiment on SN12C was > 100 µM (inactive) each time. Further, the GI50 in the experiment on TK-10 is > 100 µM (inactive).
